In PMC10648852, “Molecular drivers of resistance to sulbactam-durlobactam in contemporary clinical isolates of Acinetobacter baumannii” (Antimicrobial Agents and Chemotherapy, 2023):
“And” between values parts separate entries of the source, which are not always exact repeats. Identical values can stand only once. Like-named read-outs stand apart in the source and are kept apart here.

Columns and labels:
[1] = system: A. baumannii clinical isolates; test: microbe, parasite or virus in culture; assay type: cell-based; conditions: Acinetobacter baumannii
In short: (§1)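 Broth microdilution MICs following CLSI methods, interpreted with CLSI breakpoints where available. Sulbactam tested as twofold dilutions combined with fixed 4 µg/mL durlobactam.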

[2] = system: A. nosocomialis clinical isolate; test: microbe, parasite or virus in culture; assay type: cell-based; conditions: Acinetobacter nosocomialis, isolate ARC7023 (IHMA 2118812), France, BSI, 2019, read-out: MIC
In short: as §1

[3] = system: A. pittii clinical isolates; test: microbe, parasite or virus in culture; assay type: cell-based; conditions: Acinetobacter pittii
In short: as §1

A. baumannii PBP3 S395F = system: A. baumannii PBP3 S395F; set-up: method as in McLeod et al. (2018); conditions: average ± SD, ref McLeod et al. (2018); cited from earlier work
[4] = system: A. baumannii wild-type PBP3; test: Acylation rate constant (kinact/Ki), fluorescence anisotropy competition with BOCILLIN; conditions: Wildtype PBP3
A. baumannii PBP3 H370Y = test: as above
A. baumannii PBP3 N377Y = test: as above
A. baumannii PBP3 N392T = test: as above
A. baumannii PBP3 Q488K = test: as above

`CC1(C)[C@H](C(=O)O)N2C(=O)C[C@H]2S1(=O)=O` [sulbactam] showed an MIC ([1]; isolate ARC7017 (IHMA 2148446), Brazil, BSI, 2019, read-out: MIC) of 64 µg/mL, an MIC ([1]; isolate ARC7018 (IHMA 2045454), Guatemala, IAI, 2019, read-out: MIC) greater than 64 µg/mL and an MIC ([1]; isolate ARC7019 (IHMA 2114463), Thailand, RTI, 2019, read-out: MIC) of 32 µg/mL. The MIC ([1]; isolate ARC7020 (IHMA 2045326), Guatemala, RTI, 2019, read-out: MIC) was 32 µg/mL, the MIC ([1]; isolate ARC7021 (IHMA 1966347), Guatemala, RTI, 2019, read-out: MIC) was greater than 64 µg/mL and the MIC ([1]; isolate ARC7022 (IHMA 2045319), Guatemala, IAI, 2019, read-out: MIC) was 32 µg/mL. The MIC ([1]; isolate ARC7024 (IHMA 2059448), Turkey, RTI, 2019, read-out: MIC) was 64 µg/mL, the MIC ([1]; isolate ARC7025 (IHMA 2002121), Spain, RTI, 2019, read-out: MIC) was 32 µg/mL and the MIC ([1]; isolate ARC7026 (IHMA 2104494), Guatemala, BSI, 2019, read-out: MIC) was 32 µg/mL. It also gave an MIC ([1]; isolate ARC7082 (IHMA 2160640), Belgium, BSI, 2020, read-out: MIC) greater than 64 µg/mL, an MIC ([1]; isolate ARC7083 (IHMA 2163687), United States, RTI, 2020, read-out: MIC) of 64 µg/mL and an MIC ([1]; isolate ARC7084 (IHMA 2189596), Germany, RTI, 2020, read-out: MIC) greater than 64 µg/mL. For the same compound, the MIC ([1]; isolate ARC7085 (IHMA 2205747), Guatemala, IAI, 2020, read-out: MIC) was greater than 64 µg/mL, the MIC ([1]; isolate ARC7086 (IHMA 2207563), Israel, RTI, 2020, read-out: MIC) was 32 µg/mL and the MIC ([1]; isolate ARC7088 (IHMA 2215554), Turkey, BSI, 2020, read-out: MIC) was greater than 64 µg/mL. It also gave an MIC ([1]; isolate ARC7089 (IHMA 2240345), Argentina, BSI, 2020, read-out: MIC) greater than 64 µg/mL, an MIC ([1]; isolate ARC7090 (IHMA 2244410), Poland, RTI, 2020, read-out: MIC) greater than 64 µg/mL and an MIC ([1]; isolate ARC7091 (IHMA 2244564), Australia, RTI, 2020, read-out: MIC) greater than 64 µg/mL. The MIC ([1]; isolate ARC7092 (IHMA 2258772), United States, BSI, 2020, read-out: MIC) was greater than 64 µg/mL, the MIC ([1]; isolate ARC7093 (IHMA 2258783), United States, RTI, 2020, read-out: MIC) was 64 µg/mL and the MIC ([1]; isolate ARC7094 (IHMA 2296423), Turkey, RTI, 2020, read-out: MIC) was greater than 64 µg/mL. For the same compound, the MIC ([1]; isolate ARC7095 (IHMA 2320843), Turkey, BSI, 2020, read-out: MIC) was 64 µg/mL, the MIC ([1]; isolate ARC7156 (IHMA 2455450), Greece, RTI, 2021, read-out: MIC) was greater than 64 µg/mL and the MIC ([1]; isolate ARC7158 (IHMA 2523738), Italy, BSI, 2021, read-out: MIC) was greater than 64 µg/mL. The MIC ([1]; isolate ARC7159 (IHMA 2456229), Malaysia, RTI, 2021, read-out: MIC) was greater than 64 µg/mL, the MIC ([1]; isolate ARC7160 (IHMA 2458626), Thailand, RTI, 2021, read-out: MIC) was 64 µg/mL and the MIC ([1]; isolate ARC7161 (IHMA 2429252), Ukraine, RTI, 2021, read-out: MIC) was 8 µg/mL. It also gave an MIC ([1]; isolate ARC7162 (IHMA 2411847), United States, BSI, 2021, read-out: MIC) greater than 64 µg/mL, an MIC ([1]; isolate ARC7163 (IHMA 2477704), United States, BSI, 2021, read-out: MIC) greater than 64 µg/mL and an MIC [2] of 32 µg/mL. The MIC ([3]; isolate ARC6949 (IHMA 1898982), Romania, RTI, 2018, read-out: MIC) was 64 µg/mL, the MIC ([3]; isolate ARC6951 (IHMA 1776233), Philippines, RTI, 2018, read-out: MIC) was greater than 64 µg/mL and the MIC ([3]; isolate ARC6952 (IHMA 1899008), Romania, RTI, 2018, read-out: MIC) was greater than 64 µg/mL. The MIC ([3]; isolate ARC7087 (IHMA 2212062), Colombia, BSI, 2020, read-out: MIC) was 64 µg/mL, the “k inact/K i” value (A. baumannii PBP3 S395F) was 0.63 ± 0.06 ([3]) M^-1s^-1 and the “% WT” value [4] was 100%. The “k inact/K i” value ([4]; average ± SD) was 15 ± 3 ([10]) M^-1s^-1, the “% WT” value (A. baumannii PBP3 H370Y) was ~ 120% and 126% and the “k inact/K i” value (A. baumannii PBP3 H370Y; average ± SD) was 19 ± 2 ([2]) M^-1s^-1. For the same compound, the “% WT” value (A. baumannii PBP3 H370Y; listed as Sulbactam) was 126.7%, the “% WT” value (A. baumannii PBP3 N377Y) was 60%–73% and the “k inact/K i” value (A. baumannii PBP3 N377Y; average ± SD) was 11 ± 2 ([2]) M^-1s^-1. The “% WT” value (A. baumannii PBP3 N377Y; listed as Sulbactam) was 73.3%, the “% WT” value (A. baumannii PBP3 N392T) was ~ 120% and the “k inact/K i” value (A. baumannii PBP3 N392T; average ± SD) was 18 ± 1 ([2]) M^-1s^-1. For the same compound, the “% WT” value (A. baumannii PBP3 N392T; listed as Sulbactam) was 120%, the “% WT” value (A. baumannii PBP3 Q488K) was 60%–73% and the “k inact/K i” value (A. baumannii PBP3 Q488K; average ± SD) was 9.9 ± 0.3 ([2]) M^-1s^-1. The “% WT” value (A. baumannii PBP3 Q488K; listed as Sulbactam) was 66%.
